Results from patent US8236844B2, “Histidine derivatives” (Nippon Zoki Pharmaceutical Co., Ltd., priority 2006, dated 2012).

Columns and labels:
[1] = tested on: SART stressed mouse; test: Test for analgesic effect (1): SART stressed mouse, modified Randall-Selitto tail pressure method; type: in vivo, mouse (ddY strain)
Description: Loading of SART (Specific Alternation of Rhythm in Temperature) stress or repetitive cold stress was conducted in accordance with a method of Kita, et al. (Nippon Yakurigaku Zasshi, Vol. 71, pages 195 to 210, 1975). In a constant-temperature vessel for breeding, a breeding environment temperature for male mice of ddY strain was alternately changed at 4° C. and 24° C. every one hour from 10 a.m. until 5 p.m. and kept at 4° C. from 5 p.m. to 10 a.m. of the next morning. Breeding was conducted for 5 days where water and feed were freely taken by the mice so as to load a repetitive cold stress and, after that, the mice were subjected to the test. Before and after 30 minutes from administration of the test substance, analgesic threshold value was measured by a modified Randall-Selitto method (Tail pressure method; Nippon Yakurigaku Zasshi, Vol. 72, pages 573 to 584, 1976). Thus, Using a Randall-Selitto analgesic effect measuring device where a pressing piece was modified for mouse tail, a pressure stimulation was applied at the rate of 16 g/second to the site which was 1.5 cm to the front end from tail root of the mouse and pressurized weight (g) showing an escaping or squeaking reaction was measured and adopted as a pain threshold value. […] A value (analgesic coefficient) where the pain threshold of the test substance administration group was divided by the pain threshold of the SART control group was calculated and the analgesic effect of the test substance was confirmed. Thus, when the test substance had no effect at all, said value was 1.0 and, as the effect became stronger, the value of the analgesic coefficient increased as 1.1, 1.2 and 1.3. Significant difference between the two groups was determined by a statistic processing of the pain threshold values and the analgesic coefficient was calculated as a mean value of the pain threshold values.
As to the test animals, male mice of ddY strain of four weeks age (one group comprised ten mice) were used. The compound of the present invention as a test substance was administered at a dose of 25 ng or 50 ng per mouse into the lateral ventricle whereupon its analgesic effect was measured.
Further, when the Compound 1 of the present invention was intraperitoneally administered (100 μg/kg), the pain threshold value in the SART control group was […] while, in the test substance administration group, it was 97.8 g (analgesic coefficient: 1.24) whereby a significant improving effect for hyperalgesia was noted.

[2] = tested on: Chung model rat; test: Test for analgesic effect (2)/(3): Chung model rat, von Frey allodynia measurement; type: in vivo, rat (Wistar strain); conditions: for 50% reaction threshold value, Test substance administration group, Before admin.: baseline before intraperitoneal 400 μg/kg; for 50% reaction threshold value, Test substance administration group, After admin. for 30 minutes: intraperitoneal 400 μg/kg single dose, * P<0.05 Dunnett
Description: A test for analgesic effect was conducted using a Chung model rat which is a neuropathic pain model. As to the test animal, male rats of Wistar strain of nine weeks age were used and model rats were prepared in accordance with the method of Kim and Chung (Pain, vol. 50, pages 355 to 363, 1992). Thus, under anesthetization with pentobarbital (40 mg/kg, intraperitoneal administration), rat L5 spinal nerve was exposed and L5 dorsal root ganglion periphery side was strongly ligated using 5-0 silk yarn. The animals were placed in a transparent acrylate cage whose bottom was made of wire net, a 50% reaction threshold value was calculated by an up-down method using a von Frey filament (manufactured by North Coast Medical Inc.) according to the methods of Chaplan, et al. (J. Neurosci. Method, vol. 53, pages 55 to 63, 1994) and by Lee, et al. (J. Neurophysiol., vol. 81, pages 2226 to 2233, 1999) and measurement of allodynia was conducted. Before injury of spinal nerve, the 50% reaction threshold value was measured twice and the animals where the threshold value was outside the standard were excluded from the operation for spinal nerve injury. […] After 30 minutes from the administration of the test substance, allodynia was measured to calculate a 50% reaction threshold value. With regard to a significance test, Paired t-test was conducted for comparison between before and after the nerve injury and Dunnett's multiple comparison test was used for comparison among multiple groups of the nerve injury control group and the test substance administration group. […] After 30 minutes from administration of the test substance, measurement of allodynia was conducted to calculate the 50% reaction threshold value.

[3] = tested on: mice; test: Test for analgesic effect (4): acetic acid writhing test; type: in vivo, mouse (ddY strain); conditions: writhing numbers during 10 minutes
Description: The compounds of the present invention were orally administered to mice and a test for an analgesic effect was carried out by means of an acetic acid writhing test. As to the test animals, male mice of ddY strain of four weeks age were subjected to a preliminary breeding and they were used where one group comprised ten mice. Each of the compound of the present invention as a test substance was orally administered (10 mg/kg, 100 mg/kg) in a single dose while, to a control group, distilled water (water for injection) was administered similarly. After 25 minutes from the administration of the test substance, a 0.7% acetic acid/physiological saline was intraperitoneally administered at the dose of 10 mL/kg. From 5 minutes thereafter, writhing numbers during 10 minutes were counted and a suppressive rate for each mouse was calculated according to the following formula. Suppressive Rate(%)=[(Mean writhing numbers of the control group)−(Writhing numbers of each mouse)]÷[Mean writhing numbers of the control group]×100

[4] = tested on: rats; test: Hyperalgesia in osteoarthritis model induced by monoiodoacetic acid into joints of rats; type: in vivo, rat; conditions: oral administration of 1 mg/kg
[5] = tested on: mice; test: Single dose toxicity test by intraperitoneal administration to mice; type: in vivo, mouse (ddY strain); conditions: intraperitoneal 250, 500 and 1,000 mg/kg
Description: A single dose toxicity test by intraperitoneal administration of the compounds of the present invention to mice was carried out. Male mice of ddY strain of four weeks age were made into groups of five mice so as to make mean body weight in each group nearly the same. The Compound 1 of the present invention as a test substance was intraperitoneally administered at the doses of 250 mg/kg, 500 mg/kg and 1,000 mg/kg.

[6] = tested on: SART stressed mouse; test: Test for analgesic effect (1): SART stressed mouse, modified Randall-Selitto tail pressure method; type: in vivo, mouse (ddY strain); conditions: oral administration, peak after 30 minutes
[7] = tested on: rats; test: Formalin pain test for rats, second phase; type: in vivo, rat; conditions: oral administration of 100 mg/kg
[8] = 50 ng per mouse into the lateral ventricle, 30 minutes after administration, pain threshold of test group / SART control group
[9] = 30 minutes after administration
[10] = 25 ng per mouse into the lateral ventricle, 30 minutes after administration, pain threshold of test group / SART control group

Row | Structure (SMILES) | 50% reaction threshold value, Test substance administration group, Before admin. [2] [g] | 50% reaction threshold value, Test substance administration group, After admin. for 30 minutes [2, 9] | Suppressive Rate ([3]; oral 100 mg/kg single dose) [%] | Analgesic coefficient [1, 10] | Suppressive Rate ([3]; oral 10 mg/kg single dose) [%] | also measured
1 | C=CC(=O)N[C@@H](Cc1cncn1CC)C(=O)O [Compound 2, N(α)-acryloyl-N(π)-ethyl-L-histidine] | 2.69 ± 0.39 | 5.98 ± 0.52* g | 27.6 | – | – | Analgesic coefficient [1, 8]: 1.18
2 | CC=C(C)C(=O)N[C@@H](Cc1cncn1C)C(=O)O [Compound 7, N(α)-2-methyl-2-butenoyl-N(π)-methyl-L-histidine] | 2.71 ± 0.24 | 9.88 ± 1.59* g | 36.1 | 1.31 | – | –
3 | CC=CC(=O)N[C@@H](Cc1cncn1CC)C(=O)O [Compound 4, N(α)-crotonoyl-N(π)-ethyl-L-histidine] | – | – | – | – | 32.9 | –
4 | C=CC(=O)N[C@@H](Cc1cncn1Cc1ccccc1)C(=O)O [Compound 27, N(α)-acryloyl-N(π)-benzyl-L-histidine] | 2.58 ± 0.26 | 7.32 ± 1.32* g | – | – | 37.9 | –
5 | CC(C)=CC(=O)N[C@@H](Cc1cncn1C)C(=O)O [Compound 5, N(α)-3-methylcrotonoyl-N(π)-methyl-L-histidine] | – | – | – | – | 17.8 | –
6 | CC=C(C)C(=O)N[C@@H](Cc1cncn1CC)C(=O)O [Compound 11, N(α)-2-methyl-2-butenoyl-N(π)-ethyl-L-histidine] | – | – | – | – | 36.1 | –
7 | C=CC(=O)N[C@@H](Cc1cncn1C(C)C)C(=O)O [Compound 13, N(α)-acryloyl-N(π)-isopropyl-L-histidine] | – | – | – | – | – | Analgesic coefficient [1, 8]: 1.31
8 | Cn1cncc1C[C@H](NC(=O)C=Cc1ccccc1)C(=O)O [Compound 6, N(α)-3-phenylpropenoyl-N(π)-methyl-L-histidine] | 2.69 ± 0.33 | 6.43 ± 1.52* g | 23.5 | 1.17 | – | –
9 | CCn1cncc1C[C@H](NC(=O)C=C(C)C)C(=O)O [Compound 9, N(α)-3-methylcrotonoyl-N(π)-ethyl-L-histidine] | – | – | 38.0 | – | – | –
10 | Cc1ccc(C=CC(=O)N[C@@H](Cc2cncn2C)C(=O)O)cc1 [Compound 16, N(α)-3-(4-methylphenyl)acryloyl-N(π)-methyl-L-histidine] | – | – | 30.3 | – | – | –
11 | CC=CC(=O)N[C@@H](Cc1cncn1C)C(=O)O [Compound 3, N(α)-crotonoyl-N(π)-methyl-L-histidine] | – | – | – | 1.23 | – | –
12 | CCn1cncc1C[C@H](NC(=O)C=Cc1ccccc1)C(=O)O [Compound 10, N(α)-3-phenylpropenoyl-N(π)-ethyl-L-histidine] | – | – | – | 1.14 | 27.7 | –
13 | C=CC(=O)N[C@@H](Cc1cncn1C)C(=O)O [Compound 1, N(α)-acryloyl-N(π)-methyl-L-histidine] | – | – | 53.8 | 1.33 | 33.1 | analgesic effect on hyperalgesia (in words) [4]: significant analgesic effect; Analgesic coefficient ([1]; intraperitoneal 100 μg/kg): 1.24; pain threshold value ([1]; intraperitoneal 100 μg/kg, test substance administration group): 97.8 g; changes in the body weight compared with the control group [5]: no significant difference; abnormal observation during the observation period ([5]; 14 days): no abnormal observation was noted; death ([5]; 14 days): no death case was noted; autopsied organs and tissues observed by naked eye ([5]; after 14 days): no abnormal case was found at all; analgesic action (in words) ([6]; 3 and 10 mg/kg): significant analgesic action; ED50 value determined from the improving rate at peak of action [6]: 2.7 mg/kg; 50% reaction threshold value ([2]; intraperitoneal 100 μg/kg single dose, 30 minutes after administration): 9.60 g; anti-allodynia action (in words) ([2]; oral administration 10 mg/kg, peak after 30 minutes): significant anti-allodynia action; ED50 value determined from the improving rate at the peak of the action ([2]; oral administration, peak after 30 minutes): 2.4 mg/kg; analgesic action against pain reaction in the second phase (in words) [7]: significant analgesic action
14 | NCCC(=O)N[C@@H](Cc1cnc[nH]1)C(=O)O [carnosine, β-ananyl-L-histidine, reference compound] | – | – | – | – | – | analgesic action (in words) ([1]; administration into the lateral ventricle): no significant analgesic action
15 | C=C(C)C(=O)N[C@@H](Cc1cncn1C)C(=O)O [Compound 30, N(α)-methacryl-N(π)-methyl-L-histidine] | 2.63 ± 0.23 | 4.30 ± 0.46* g | – | – | – | –
